| melting point [°C] | Structure (SMILES) |
| --- | --- |
| 231 to 232 | CC1(C)CC(=O)c2c(C(=O)O)c[nH]c2C1 |
| 145 to 146 | CCOc1cc(OCc2nc(-c3ccco3)oc2C)ccc1CCl |
| 115 to 117 | O=C(NC(NCCc1ccccc1)C(Cl)(Cl)Cl)c1ccncc1 (configuration not stated) |
| 162 | CCOc1ccc2c(c1)n(C1CCCCC1)c(=O)n2S(=O)(=O)c1ccc([N+](=O)[O-])cc1OC |
| 126 to 128 | COc1ccc(N(CCC(O)CO)S(=O)(=O)c2c(F)c(F)c(F)c(F)c2F)cc1 (configuration not stated) |
| 105 | CC(=O)c1ccc(Nc2ccccc2)cc1 |
| 140 to 144 | O=C(O)COc1nc(F)c(Cl)cc1Cl |
| 205 to 207 | CC1Cc2c(c3cccnc3n(-c3cccc(C(F)(F)F)c3)c2=O)O1 (configuration not stated) |
| 86 to 87 | Cc1cc(C)c2c(c1O)C(=O)C(C)(Cc1ccccc1)C2 (configuration not stated) |
| 266 to 268 | Cc1n[nH]c(=O)c(-c2c(F)cc(F)cc2F)c1-c1ccc2ccccc2c1 |
| 144 to 146 | OC(CCc1ccc(F)cc1)c1cnc2sc3c(n12)CCCCC3 (configuration not stated) |
| 244 to 246 | COc1ccc(-c2csc(Nc3cccc4ccccc34)n2)cc1OC |
| 121 to 122 | C=C(C)COc1ccc(C(=O)C=Cc2ccc(Br)cc2)c(O)c1 |
| 122 to 124 | CCOC(=O)N1CCC(Nc2nccc(Oc3ccc(NC(=O)c4cc(F)cc(N5CCOCC5)c4)c4ccccc34)n2)CC1 |
| 151 to 152 | CCCCC(Cc1ccc(OCCCNC(=O)c2ccc(-c3ccccn3)cc2)cc1)C(=O)O (configuration not stated) |
| 74 to 75 | CCC(=O)c1cc(CC)c(O)cc1O |
| 152 to 153 | O=C(NCc1ccccc1)C1Cc2cc(Br)cc3[nH]c(=O)c(=O)n1c23 (configuration not stated) |
| 152 to 153 | O=C(O)Cc1ccc(-n2cc(Cl)cn2)cc1Cl |
| 154 | COc1ccc2cccc(CCN3C(=O)c4ccccc4C3=O)c2c1 |
| 263 to 267 | O=C1NC(=O)c2c1c(-c1ccccc1Cl)cc1c2c2cc(O)ccc2n1CCC(O)CO (configuration not stated) |
| 188 to 189 | CCCCCc1cc2c(nc(O)n2CCCCS(C)(=O)=O)c(N)n1 |
| 347 | O=C(c1n[nH]c2c(=O)[nH]c3cc(Cl)ccc3c(=O)c12)N1CCOCC1 |
| 226 to 234 | Cc1ccc(F)cc1C(=O)Nc1ccc(C(=O)N2Cc3cccn3-c3ncccc32)cn1 |
| 181 to 182 | O=C1c2cccc(NCCc3ccc(O)cc3)c2C(=O)c2c(NCCc3ccc(O)cc3)cccc21 |
| 75 to 77 | CC(C)C[C@H](NC(=O)OC(C)(C)C)[C@@H]1CCC(=O)O1 |
| 166 to 179 | CCCCNS(=O)(=O)c1ccc(N2CCC(NC[C@H](O)COc3cccc4[nH]c5ccccc5c34)CC2)cc1 |
| 256 to 258 | CCCCc1cccn2c(=O)c(-c3nnn[nH]3)cnc12 |
| 120 to 122 | CSc1nc(OCC2COC(C)(C)O2)c2c(-c3ccccc3Cl)n[nH]c2n1 (configuration not stated) |
| 97 to 98 | CN1CCCc2ccc(O)cc21 |

Further lines, the compound ahead of its results:

| Structure (SMILES) | melting point [°C] |
| --- | --- |
| O=C1Cc2cccc(Oc3c(Cl)cccc3Cl)c2N1 | > 230 |
| CCCOc1ccc(NC2=C(C(=O)OCC)CCC2)cc1C1=NC(=O)C2=NN=NC2=N1 | 164 to 165 |
| Cc1nc(-c2ccc(OCc3cccnc3)cc2)no1 | 55 to 56 |
| c1ccc(C(C2=NCCN2)c2ccccn2)cc1 (configuration not stated) | 134 to 136 |
| c1cc(OCC2CO2)c2cnsc2c1 (configuration not stated) | 90 to 91 |
| COc1ccc(C2(C)C(=O)c3c(Cl)cc(Cl)cc3N(Cc3ccccc3)C2=O)cc1 (configuration not stated) | 159 to 160 |
| Cn1c([N+](=O)[O-])cnc1C1=NOC2CCCC12 (configuration not stated) | 89.5 to 91.5 |
| COC(=O)c1nccnc1Br | 43 to 45 |
| COCS(=O)(=O)[C@H](C)[C@](O)(Cn1cncn1)c1ccc(F)cc1F | 102 to 103 |
| Cc1c(Oc2ccc(C(=O)NC(C)C)cc2)c2cc(F)ccc2n1CC(=O)O | 218 to 219 |
| O=C1CCC(Cc2ccc(Cl)cc2)N1 (configuration not stated) | 95 to 98 |
| Cc1cccc(NC(=O)NCC(=O)N(CC(=O)N2CCC3(CC2)OCCO3)c2ccccc2)c1 | 130 |
| CC(C)(C)OC(=O)NC1CCc2cc3ccccc3n2C1 (configuration not stated) | 137 to 139 |
| CCOC(=O)Cc1cnc(N=C2SCC3Cc4ccccc4CN23)s1 (configuration not stated) | 132 |
| O=C(N[C@H]1CC[C@H](CCN2CCN(c3nccc4c3OCC4)CC2)CC1)C1(O)CCC1 | 250 |
| CNC(=O)Nc1ccc(Oc2ccc3sncc3c2)c(C(F)(F)F)c1 | 138 |
| COc1ncc(OC)c(NN)n1 | 115 to 117 |
| Cc1cc(N2N=CCNC2=O)cc(Cl)c1C(C#N)c1cnc(Cl)s1 (configuration not stated) | 238 to 239 |
| COC(=O)C(Cc1ccc(OCc2ccccc2)cc1)NC(=O)c1cc2ccc(-c3ccc(Cl)cc3)cc2s1 (configuration not stated) | 200 to 201 |
| CC(=O)Nc1ccc(C#CCCN2CC=C(c3ccccc3)CC2)cn1 | 169 to 170 |
| COc1ccc(OC)c(-c2cc3c(Nc4cccc(Cl)c4)ncnc3[nH]2)c1 | 267 to 268 |
| COC(=O)c1cc(NC(=O)c2cc(Br)ccc2Cl)ccc1-n1nc(C(F)(F)F)cc1C(F)(F)F | 75 to 76 |

| Structure (SMILES) | melting point [°C] |
| --- | --- |
| NC(=O)CON=C(c1ccc(Cl)cc1)c1ccc(Cl)cc1 | 141 to 142 |
| N#Cc1ccc(N2C(=O)CNC2=O)c2ccccc12 | > 275 |
| Cc1[nH]c2ccc(OC(C)C(C)N3CCCC3)cc2c1C(=O)OCc1ccccc1 (configuration not stated) | 94 to 98 |
| CC(C)Nc1cccnc1N1CCN(C(=O)c2ccc(C(=O)N[C@H](C)CO)cn2)CC1 | 129 to 130 |
| O=C(CC1(Sc2ccc(Oc3ccc(Cl)cc3)cc2)CCOCC1)NO | 50 to 55 |
| Cc1sc(N)c(C(=O)c2ccccc2)c1C | 140 to 141 |
| O=C(OCc1ccccc1)C(O)N1C(=O)C2CC=CCC21 (configuration not stated) | 92 to 93 |
| Cc1nn(-c2ccccn2)c2nc3ccccc3c(Cl)c12 | 157 to 159 |
| CC1=NN(C)C(=O)C1(Br)C(=O)c1ccc(Cl)cc1Cl (configuration not stated) | 89 to 90 |
| Cc1nc2sccn2c(=O)c1O | 225 to 227 |
| COc1cc(CN/C=C2\C(=O)NC(=O)c3ccc(Br)cc32)ccc1O | 260 to 261 |
| Cn1ncc2c1C(=O)C(Cl)=C(NC1CC1)C2=O | 175 to 176 |
| O=C(Oc1ccccc1)c1ccc(NS(=O)(=O)c2ccccc2)cc1Cl | 130 to 140 |
| CSc1nnc(C(O)(c2ccc(Cl)cc2)c2ccc3nc(C)cc(-c4cccc(Cl)c4)c3c2)n1C (configuration not stated) | 142 |
| O=C1c2cccc3cccc(c23)C(=O)N1CCCCCO | 96.5 to 97.5 |
| COc1ccc2nc3cc(C(=O)O)ccn3c(=O)c2c1 | 323 to 327 |
| Oc1c(-c2ccccc2)sc2c(C(O)c3ccccc3)nccc12 (configuration not stated) | 214 to 215 |
| O=C(NC1(C2CC2)CC1)c1c(NC(=O)c2cc(C(F)(F)F)nn2-c2ncccc2Cl)ccc2cn[nH]c12 | 224 to 227 |
| c1ccc(COc2ccc(-c3nc(COc4cccc(CCCn5ccnc5)c4)co3)cc2)cc1 | 144 to 145 |
| COC(=O)Cn1c(=O)sc2cc(Br)c(Cl)cc21 | 209 to 210 |
| O=C(O)c1ccc(OCCNC(=O)C2Cc3ccccc3N2S(=O)(=O)c2ccc(-c3ccc(F)cc3Cl)cc2)cc1 (configuration not stated) | 90 |

Source: a melting point compilation (Tetko et al.; mined from patent text by program, amines drawn as free bases though some values may be those of a salt)
